Assay results reported in article PMC8903829 (eLife, 2022).
Where “and” joins values, the source holds several entries; their conditions need not be identical. Identical values can stand only once. Entries after “also recorded” stand apart in the source; their conditions may differ.

Legend:
[1] = target: T1, N1768D NaV1.6 persistent currents (Homo sapiens, UniProt Q9UQD0, N1768D); assay: Persistent current inhibition; format: cell-based; conditions: non-inactivating current 10ms after initiation of test pulse
T1 construct: expression vector containing the full-length cDNA coding for specific human and mouse sodium channel α-subunit; expressed in transfected cells; host or cells: Expi293F (transient, tetracycline-induced, pcDNA4/TO)
T1 sequence (Q9UQD0 whole entry N1768D): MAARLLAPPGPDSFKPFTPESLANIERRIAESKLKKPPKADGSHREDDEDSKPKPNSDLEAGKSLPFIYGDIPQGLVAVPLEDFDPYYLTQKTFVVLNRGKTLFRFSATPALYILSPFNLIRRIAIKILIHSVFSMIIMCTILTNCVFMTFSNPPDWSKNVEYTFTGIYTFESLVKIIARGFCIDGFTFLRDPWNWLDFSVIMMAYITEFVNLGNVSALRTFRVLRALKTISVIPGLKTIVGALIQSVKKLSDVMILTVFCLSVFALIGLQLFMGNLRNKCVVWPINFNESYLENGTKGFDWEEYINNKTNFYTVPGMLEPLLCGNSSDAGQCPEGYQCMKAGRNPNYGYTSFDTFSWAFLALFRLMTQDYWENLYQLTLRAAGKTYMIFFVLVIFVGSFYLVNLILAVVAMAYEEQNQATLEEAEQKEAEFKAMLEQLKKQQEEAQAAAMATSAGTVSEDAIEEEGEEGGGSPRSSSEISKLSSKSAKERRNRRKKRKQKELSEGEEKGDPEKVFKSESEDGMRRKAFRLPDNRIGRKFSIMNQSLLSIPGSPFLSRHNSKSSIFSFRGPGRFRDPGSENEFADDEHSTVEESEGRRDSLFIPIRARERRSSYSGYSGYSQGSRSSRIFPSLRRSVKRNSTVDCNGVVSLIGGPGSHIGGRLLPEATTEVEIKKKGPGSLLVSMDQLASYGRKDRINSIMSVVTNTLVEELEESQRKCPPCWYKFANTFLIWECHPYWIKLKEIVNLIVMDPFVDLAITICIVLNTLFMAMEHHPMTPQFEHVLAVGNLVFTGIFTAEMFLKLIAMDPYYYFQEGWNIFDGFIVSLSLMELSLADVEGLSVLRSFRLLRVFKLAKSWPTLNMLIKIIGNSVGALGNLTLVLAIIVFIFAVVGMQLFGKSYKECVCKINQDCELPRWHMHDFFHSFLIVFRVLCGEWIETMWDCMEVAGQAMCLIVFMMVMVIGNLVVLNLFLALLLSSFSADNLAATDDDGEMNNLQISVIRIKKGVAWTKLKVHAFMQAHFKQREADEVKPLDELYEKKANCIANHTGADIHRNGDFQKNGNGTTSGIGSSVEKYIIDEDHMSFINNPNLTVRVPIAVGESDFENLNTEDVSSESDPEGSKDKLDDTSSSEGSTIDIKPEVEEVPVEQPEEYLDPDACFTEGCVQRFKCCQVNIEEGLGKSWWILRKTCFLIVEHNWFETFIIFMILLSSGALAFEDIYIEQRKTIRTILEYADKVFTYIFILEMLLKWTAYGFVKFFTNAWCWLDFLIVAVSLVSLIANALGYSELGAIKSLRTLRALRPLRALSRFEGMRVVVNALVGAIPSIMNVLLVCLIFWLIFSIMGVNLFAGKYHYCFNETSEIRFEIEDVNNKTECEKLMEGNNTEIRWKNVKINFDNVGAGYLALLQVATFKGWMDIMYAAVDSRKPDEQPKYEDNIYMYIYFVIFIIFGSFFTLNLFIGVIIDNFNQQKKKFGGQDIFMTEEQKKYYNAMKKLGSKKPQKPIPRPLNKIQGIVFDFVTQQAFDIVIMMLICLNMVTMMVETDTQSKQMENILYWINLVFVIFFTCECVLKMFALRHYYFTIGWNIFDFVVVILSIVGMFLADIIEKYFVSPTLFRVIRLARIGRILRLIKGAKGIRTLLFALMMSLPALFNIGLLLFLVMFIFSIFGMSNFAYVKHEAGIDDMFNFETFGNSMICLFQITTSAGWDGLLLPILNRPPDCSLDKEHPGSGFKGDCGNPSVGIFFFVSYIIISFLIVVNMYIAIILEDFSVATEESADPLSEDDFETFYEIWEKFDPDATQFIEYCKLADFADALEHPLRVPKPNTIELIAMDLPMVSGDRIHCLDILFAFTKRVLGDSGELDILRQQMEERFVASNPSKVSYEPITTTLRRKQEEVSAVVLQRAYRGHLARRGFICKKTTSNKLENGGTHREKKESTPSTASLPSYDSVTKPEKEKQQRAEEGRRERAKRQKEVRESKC
T1 sequence (Q92913 1-192 isoform Q92913-2 partner): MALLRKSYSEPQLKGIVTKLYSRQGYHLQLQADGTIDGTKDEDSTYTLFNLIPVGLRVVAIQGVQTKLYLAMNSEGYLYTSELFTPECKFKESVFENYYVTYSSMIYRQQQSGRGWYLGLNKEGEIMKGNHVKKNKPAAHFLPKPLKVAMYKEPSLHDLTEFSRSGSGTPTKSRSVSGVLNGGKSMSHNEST
From the text: Elevated persistent and or resurgent currents are believed to underlie or contribute to the pathology of many sodium channel related pathologies ([Mason et al., 2019]; [Pan and Cummins, 2020]; [Potet et al., 2020]; [Tidball et al., 2020]; [Zaman et al., 2019]). In most conditions, normal NaV1.6 channels inactivate rapidly and nearly completely after opening.
Inorm(CPD)=(ICPD−Icontrol)/(ITTX−Icontrol).

[2] = test system: fast spiking interneurons; assay: Current-clamp recording in brain slices, action-potential firing; format: cell-based, mouse; conditions: for Fast spiking interneurons APs/1s: 0.25 μM, individual neurons; for Cumulative number of action potentials fired by each cell on increasing current injections: 250 nM, fast spiking interneurons
Procedure: Parasagittal cortical brain slices were prepared from> P21 mice using standard procedures (adapted from Tai et al., PNAS 2014). Briefly, the mouse was deeply anaesthetized with isoflurane and decapitated. The brain was removed and placed into chilled artificial cerebrospinal fluid (aCSF) solution containing (in mM): 125 NaCl, 25 NaHCO3, 2.5 KCl, 1.25 NaH2PO4, 2 CaCl2, 2 MgCl2, 10 d-glucose, pH 7.3, osmolarity adjusted to ~306 mOsm using sucrose. All solutions were saturated with 95% O2 and 5% CO2 constantly perfused with 95% O2/5% CO2. Slices with a thickness of 400 µm were prepared using a vibratome (Ted Pella, Inc). Following sectioning, the slices were placed in a holding chamber and incubated in a water bath at 34 °C for 15 min. The brain slices were removed from the water bath and held at room temperature for 60 min prior to recording.
All experiments involving rodent subjects were performed in accordance with the guidelines of the Canadian Council on Animal Care (CCAC). Following a 60-min incubation at room temperature, a brain slice was selected and placed on the stage of an upright microscope (SliceScope Pro 2000, Scientifica). The slice was constantly perfused with room temperature aCSF, containing 0.1% DMSO as a vehicle control, and oxygenated with 95% O2/5% CO2.The slice was visualized using brightfield microscopy, and a healthy neuron was selected from neocortical layer 5. […] Stimulation was applied in current-clamp mode, and consisted of a series of 1000ms square pulses, beginning at –20 pA and increasing by +20 pA increments (3000ms between pulses).
The slice was incubated in circulating compound for 10 min before repeating the series of square pulse stimulations. Working stock solutions were prepared in DMSO at a concentration of 20 mM.
All data analysis was done offline using ClampFit 10.7 (Molecular Devices). Data are presented as a mean ± SEM. For each sweep, the number of evoked APs was counted, and plotted as a function of current injection (beginning with –20 pA). […] Statistical significance was assessed using paired, two-way, student’s t-test applied at each current injection level with significance considered p < 0.05.

With Cc1cc(S(=O)(=O)Nc2cscn2)c(F)cc1N(C)[C@H]1CCN(Cc2ccccc2)C1 [NBI-921352] the IC50 [1] was 59 nM, the “effect on action-potential firing, fast-spiking interneurons” value ([2]; 0.25 µM NBI-921352) was “trend toward slightly increased firing frequency; also recorded: no significant effect” and the “Fast spiking interneurons APs/1s” value ([2]; 220 pA current injected) was 51 APs/1s and 58 APs/1s and 67 APs/1s. For the same molecule, the “Fast spiking interneurons APs/1s” value ([2]; current injected 0 pA) was 0 APs/1s, the “Fast spiking interneurons APs/1s” value ([2]; current injected 20 pA) was 0 APs/1s and the “Fast spiking interneurons APs/1s” value ([2]; current injected 40 pA) was 0 APs/1s. The “Fast spiking interneurons APs/1s” value ([2]; current injected 60 pA, row) was 0 APs/1s (2×) and 17 APs/1s, the “Fast spiking interneurons APs/1s” value ([2]; current injected 80 pA, row) was 0 APs/1s and 1 APs/1s and 25 APs/1s and the “Fast spiking interneurons APs/1s” value ([2]; current injected 100 pA, row) was 20 APs/1s and 25 APs/1s and 33 APs/1s. For the same molecule, the “Fast spiking interneurons APs/1s” value ([2]; current injected 120 pA, row) was 28 APs/1s and 33 APs/1s and 39 APs/1s, the “Fast spiking interneurons APs/1s” value ([2]; current injected 140 pA, row) was 34 APs/1s and 40 APs/1s and 45 APs/1s and the “Fast spiking interneurons APs/1s” value ([2]; current injected 160 pA, row) was 38 APs/1s and 46 APs/1s and 52 APs/1s. For the same molecule, the “Fast spiking interneurons APs/1s” value ([2]; current injected 180 pA, row) was 43 APs/1s and 50 APs/1s and 57 APs/1s, the “Fast spiking interneurons APs/1s” value ([2]; current injected 200 pA, row) was 47 APs/1s and 55 APs/1s and 62 APs/1s and the “Fast spiking interneurons APs/1s” value ([2]; current injected 220 pA, row) was 51 APs/1s and 58 APs/1s and 67 APs/1s. For the same molecule, the “Fast spiking interneurons APs/1s” value ([2]; current injected 240 pA, row) was 55 APs/1s and 62 APs/1s and 73 APs/1s, the “Fast spiking interneurons APs/1s” value ([2]; current injected 260 pA, row) was 58 APs/1s and 65 APs/1s and 77 APs/1s and the “Fast spiking interneurons APs/1s” value ([2]; current injected 280 pA, row) was 61 APs/1s and 70 APs/1s and 82 APs/1s. For the same molecule, the “Fast spiking interneurons APs/1s” value ([2]; current injected 300 pA, row) was 65 APs/1s and 73 APs/1s and 86 APs/1s, the “Fast spiking interneurons APs/1s” value ([2]; current injected 320 pA, row) was 68 APs/1s and 76 APs/1s and 89 APs/1s and the “Fast spiking interneurons APs/1s” value ([2]; current injected 340 pA, row) was 70 APs/1s and 80 APs/1s and 96 APs/1s. For the same molecule, the “Fast spiking interneurons APs/1s” value ([2]; current injected 360 pA, row) was 73 APs/1s and 83 APs/1s and 100 APs/1s, the “Fast spiking interneurons APs/1s” value ([2]; current injected 380 pA, row) was 74 APs/1s and 83 APs/1s and 100 APs/1s and the “Fast spiking interneurons APs/1s” value ([2]; current injected 400 pA, row) was 75 APs/1s and 86 APs/1s and 103 APs/1s. The “Fast spiking interneurons APs/1s” value ([2]; current injected 420 pA, row) was 77 APs/1s and 87 APs/1s and 101 APs/1s, the “Fast spiking interneurons APs/1s” value ([2]; current injected 440 pA, row) was 77 APs/1s and 88 APs/1s and 103 APs/1s and the “Fast spiking interneurons APs/1s” value ([2]; current injected -20 pA) was 0 APs/1s. For the same molecule, the “Cumulative number of action potentials fired by each cell on increasing current injections” value ([2]; up to current injected 0 pA) was 0, the “Cumulative number of action potentials fired by each cell on increasing current injections” value ([2]; up to current injected 20 pA) was 0 and the “Cumulative number of action potentials fired by each cell on increasing current injections” value ([2]; up to current injected 40 pA) was 0. The “Cumulative number of action potentials fired by each cell on increasing current injections” value ([2]; up to current injected 140 pA, listed as NBI-921252) was 82 and 99 and 159, the “Cumulative number of action potentials fired by each cell on increasing current injections” value ([2]; up to current injected 160 pA, listed as NBI-921252) was 120 and 145 and 211 and the “Cumulative number of action potentials fired by each cell on increasing current injections” value ([2]; up to current injected 180 pA, listed as NBI-921252) was 163 and 195 and 268. The “Cumulative number of action potentials fired by each cell on increasing current injections” value ([2]; up to current injected 200 pA, listed as NBI-921252) was 210 and 250 and 330, the “Cumulative number of action potentials fired by each cell on increasing current injections” value ([2]; up to current injected 220 pA, listed as NBI-921252) was 261 and 308 and 397 and the “Cumulative number of action potentials fired by each cell on increasing current injections” value ([2]; up to current injected 240 pA, listed as NBI-921252) was 316 and 370 and 470. For the same molecule, the “Cumulative number of action potentials fired by each cell on increasing current injections” value ([2]; up to current injected 260 pA, listed as NBI-921252) was 374 and 435 and 547, the “Cumulative number of action potentials fired by each cell on increasing current injections” value ([2]; up to current injected 280 pA, listed as NBI-921252) was 435 and 505 and 629 and the “Cumulative number of action potentials fired by each cell on increasing current injections” value ([2]; up to current injected 300 pA, listed as NBI-921252) was 500 and 578 and 715. The “Cumulative number of action potentials fired by each cell on increasing current injections” value ([2]; up to current injected 320 pA, listed as NBI-921252) was 568 and 654 and 804, the “Cumulative number of action potentials fired by each cell on increasing current injections” value ([2]; up to current injected 340 pA, listed as NBI-921252) was 638 and 734 and 900 and the “Cumulative number of action potentials fired by each cell on increasing current injections” value ([2]; up to current injected 360 pA, listed as NBI-921252) was 711 and 817 and 1000. For the same molecule, the “Cumulative number of action potentials fired by each cell on increasing current injections” value ([2]; up to current injected 380 pA, listed as NBI-921252) was 785 and 900 and 1100, the “Cumulative number of action potentials fired by each cell on increasing current injections” value ([2]; up to current injected 400 pA, listed as NBI-921252) was 860 and 986 and 1203 and the “Cumulative number of action potentials fired by each cell on increasing current injections” value ([2]; up to current injected 420 pA, listed as NBI-921252) was 937 and 1073 and 1304. For the same molecule, the “Cumulative number of action potentials fired by each cell on increasing current injections” value ([2]; up to current injected 440 pA, listed as NBI-921252) was 1014 and 1161 and 1407 and the “Cumulative number of action potentials fired by each cell on increasing current injections” value ([2]; up to current injected -20 pA) was 0.
